According to publication PMC8632988, “Inhibition of SYK and cSrc kinases can protect bone and cartilage in preclinical models of osteoarthritis and rheumatoid arthritis” (Scientific Reports, 2021):
“And” between values parts separate entries of the source, which are not always exact repeats. Equal values may be shown once.

Test system: DBA/1 mice, CIA model
Assay: Collagen-induced arthritis model in mice
Assay type: in vivo, mouse
Details: QD
Procedure: Collagen-induced arthritis (CIA) model was performed at Bolder BioPATH, USA. Study design and animal usage was approved by Bolder BioPATH’s Institutional Animal Care and Use Committee. CIA was induced in 6–7 week old male DBA/1 mice with body weight of 15–26 g (Harlan, Inc) by intradermal injection of Freund’s Complete Adjuvant (Difco) containing bovine type II collagen (Bolder BioPATH) on day 0 and again on day 21 according to the standard protocol. […] After that mice were randomized into six groups: a control group of four, vehicle group and four treatment groups of ten mice each. […] Each paw was scored daily for inflammation. Therapeutic and prophylactic paws were considered. At study termination mice were euthanized by CO2 inhalation followed by cervical dislocation. Fore paws, hind paws, and knees were removed for microscopy.
Mice were weighed on arthritis days 1, 3, 5, 7, 9, and 11 (prior to necropsy). Daily clinical scores were given for each of the paws (right front, left front, right rear, left rear) on days 1–11 using the following criteria:
After 1–2 days in fixative and 4–5 days in 5% formic acid for decalcification, tissues were trimmed, processed for paraffin embedding, sectioned at 8 µm and stained with toluidine blue. Hind paws and knees were embedded and sectioned in the frontal plane. Two joints from each animal were processed for histopathology evaluation. The joints were then scored by two independent readers as indicated below. When scoring, severity of changes as well as number of individual joints affected were considered. When only 1–3 joints of the paws or ankles out of a possibility of numerous metacarpal/metatarsal/digit or tarsal/tibiotarsal joints were affected, an arbitrary assignment of a maximum score of 1, 2 or 3 for parameters below was given depending on severity of changes. If more than 3 joints were involved, the criteria below were applied to the most severely affected/majority of joints.

CN(Cc1cnc2nc(N)nc(N)c2n1)c1ccc(C(=O)N[C@@H](CCC(=O)O)C(=O)O)cc1 [MTX, methotrexate, reference compound]
% inhibition to Vehicle, Paw Score Total AUC Sum (d1-11) (1.5 mg/kg PO): 12% | Paw Score Total AUC Sum (d1-11) (1.5 mg/kg PO, group Mean): 28.46 | Paw Score Total AUC Sum (d1-11) (1.5 mg/kg PO, individual animals): 19.25 and 28.75 and 18.25 and 23.38 and 30.63 and 34.25 and 31.00 and 24.88 and 33.25 and 41.00 | % inhibition to Vehicle, Average Paw Score (Day 1, 1.5 mg/kg PO): 0% | Average Paw Score Per Arthritis Day (All Paws) (Day 1, 1.5 mg/kg PO, group Mean): 0.80 | Average Paw Score Per Arthritis Day (All Paws) (Day 1, 1.5 mg/kg PO, individual animals, 1.5 mg/kg): 0.50 and 1.00 and 1.50 | % inhibition to Vehicle, Average Paw Score (Day 2, 1.5 mg/kg PO): 19% | Average Paw Score Per Arthritis Day (All Paws) (Day 2, 1.5 mg/kg PO, group Mean): 1.48 | Average Paw Score Per Arthritis Day (All Paws) (Day 2, 1.5 mg/kg PO, individual animals, 1.5 mg/kg): 0.50 and 1.25 and 1.50 and 1.00 and 2.00 and 1.75 and 2.50 | % inhibition to Vehicle, Average Paw Score (Day 3, 1.5 mg/kg PO): 20% | Average Paw Score Per Arthritis Day (All Paws) (Day 3, 1.5 mg/kg PO, group Mean): 2.13 | Average Paw Score Per Arthritis Day (All Paws) (Day 3, 1.5 mg/kg PO, individual animals, 1.5 mg/kg): 0.75 and 1.75 and 2.00 and 2.50 and 2.75 and 3.00 | % inhibition to Vehicle, Average Paw Score (Day 4, 1.5 mg/kg PO): 10% | Average Paw Score Per Arthritis Day (All Paws) (Day 4, 1.5 mg/kg PO, group Mean): 2.85 | Average Paw Score Per Arthritis Day (All Paws) (Day 4, 1.5 mg/kg PO, individual animals, 1.5 mg/kg): 1.75 and 3.00 and 2.00 and 2.25 and 2.50 and 2.75 and 4.00 | % inhibition to Vehicle, Average Paw Score (Day 5, 1.5 mg/kg PO): 9% | Average Paw Score Per Arthritis Day (All Paws) (Day 5, 1.5 mg/kg PO, group Mean): 3.15 | Average Paw Score Per Arthritis Day (All Paws) (Day 5, 1.5 mg/kg PO, individual animals, 1.5 mg/kg): 2.25 and 2.00 and 4.00 and 2.75 and 4.75 | % inhibition to Vehicle, Average Paw Score (Day 6, 1.5 mg/kg PO): 11% | Average Paw Score Per Arthritis Day (All Paws) (Day 6, 1.5 mg/kg PO, individual animals, 1.5 mg/kg): 2.50 and 2.00 and 2.25 and 4.00 and 2.75 and 4.75 | % inhibition to Vehicle, Average Paw Score (Day 7, 1.5 mg/kg PO): 12% | Average Paw Score Per Arthritis Day (All Paws) (Day 7, 1.5 mg/kg PO, individual animals, 1.5 mg/kg): 2.50 and 2.00 and 2.25 and 4.00 and 2.75 and 4.75 | % inhibition to Vehicle, Average Paw Score (Day 8, 1.5 mg/kg PO): 13% | Average Paw Score Per Arthritis Day (All Paws) (Day 8, 1.5 mg/kg PO, individual animals, 1.5 mg/kg): 2.50 and 2.00 and 3.75 and 4.00 and 2.75 and 4.75 | % inhibition to Vehicle, Average Paw Score (Day 9, 1.5 mg/kg PO): 13% | Average Paw Score Per Arthritis Day (All Paws) (Day 9, 1.5 mg/kg PO, individual animals, 1.5 mg/kg): 2.50 and 2.00 and 3.00 and 4.00 and 4.25 and 2.75 and 3.75 and 5.00 | % inhibition to Vehicle, Average Paw Score (Day 10, 1.5 mg/kg PO): 12% | Average Paw Score Per Arthritis Day (All Paws) (Day 10, 1.5 mg/kg PO, individual animals, 1.5 mg/kg): 2.50 and 2.00 and 4.75 and 4.50 and 2.75 and 4.00 and 5.00 | % inhibition to Vehicle, Average Paw Score (Day 11, 1.5 mg/kg PO): 12% | Average Paw Score Per Arthritis Day (All Paws) (Day 11, 1.5 mg/kg PO, individual animals, 1.5 mg/kg): 2.50 and 2.00 and 4.75 and 4.50 and 2.75 and 4.00 and 5.00 | % inhibition to Vehicle, Total AUC Sum (d1-11) (MTX 1.5 mg/kg PO): 21% | Summed Prophylactic (Non-Enrollment) Paw Score (MTX 1.5 mg/kg PO, Day 1, group mean): 0.00 | Summed Prophylactic (Non-Enrollment) Paw Score (MTX 1.5 mg/kg PO, Day 1, individual animals): 0 | % inhibition to Vehicle, Summed Prophylactic (Non-Enrollment) Paw Score (MTX 1.5 mg/kg PO, Day 2): 38% | Summed Prophylactic (Non-Enrollment) Paw Score (MTX 1.5 mg/kg PO, Day 2, group mean): 1.60 | Summed Prophylactic (Non-Enrollment) Paw Score (MTX 1.5 mg/kg PO, Day 2, individual animals): 0 and 2 and 1 and 5 and 4 | % inhibition to Vehicle, Summed Prophylactic (Non-Enrollment) Paw Score (MTX 1.5 mg/kg PO, Day 3): 30% | Summed Prophylactic (Non-Enrollment) Paw Score (MTX 1.5 mg/kg PO, Day 3, group mean): 3.30 | Summed Prophylactic (Non-Enrollment) Paw Score (MTX 1.5 mg/kg PO, Day 3, individual animals): 0 and 3 and 1 and 4 and 7 and 8 and 5 and 2 | % inhibition to Vehicle, Summed Prophylactic (Non-Enrollment) Paw Score (MTX 1.5 mg/kg PO, Day 4): 20% | Summed Prophylactic (Non-Enrollment) Paw Score (MTX 1.5 mg/kg PO, Day 4, group mean): 5.10 | Summed Prophylactic (Non-Enrollment) Paw Score (MTX 1.5 mg/kg PO, Day 4, individual animals): 3 and 4 and 1 and 6 and 10 | % inhibition to Vehicle, Summed Prophylactic (Non-Enrollment) Paw Score (MTX 1.5 mg/kg PO, Day 5): 19% | Summed Prophylactic (Non-Enrollment) Paw Score (MTX 1.5 mg/kg PO, Day 5, group mean): 5.90 | Summed Prophylactic (Non-Enrollment) Paw Score (MTX 1.5 mg/kg PO, Day 5, individual animals): 5 and 4 and 1 and 9 and 12 and 10 and 6 | % inhibition to Vehicle, Summed Prophylactic (Non-Enrollment) Paw Score (MTX 1.5 mg/kg PO, Day 6): 21% | Summed Prophylactic (Non-Enrollment) Paw Score (MTX 1.5 mg/kg PO, Day 6, group mean): 6.00 | Summed Prophylactic (Non-Enrollment) Paw Score (MTX 1.5 mg/kg PO, Day 6, individual animals): 6 and 4 and 1 and 9 and 12 and 10 | % inhibition to Vehicle, Summed Prophylactic (Non-Enrollment) Paw Score (MTX 1.5 mg/kg PO, Day 7): 22% | Summed Prophylactic (Non-Enrollment) Paw Score (MTX 1.5 mg/kg PO, Day 7, group mean): 6.10 | Summed Prophylactic (Non-Enrollment) Paw Score (MTX 1.5 mg/kg PO, Day 7, individual animals): 6 and 5 and 4 and 1 and 9 and 12 and 10 | % inhibition to Vehicle, Summed Prophylactic (Non-Enrollment) Paw Score (MTX 1.5 mg/kg PO, Day 8): 22% | Summed Prophylactic (Non-Enrollment) Paw Score (MTX 1.5 mg/kg PO, Day 8, group mean): 6.30 | Summed Prophylactic (Non-Enrollment) Paw Score (MTX 1.5 mg/kg PO, Day 8, individual animals): 6 and 5 and 4 and 2 and 10 and 12 | % inhibition to Vehicle, Summed Prophylactic (Non-Enrollment) Paw Score (MTX 1.5 mg/kg PO, Day 9): 20% | Summed Prophylactic (Non-Enrollment) Paw Score (MTX 1.5 mg/kg PO, Day 9, group mean): 6.80 | Summed Prophylactic (Non-Enrollment) Paw Score (MTX 1.5 mg/kg PO, Day 9, individual animals): 6 and 5 and 4 and 3 and 11 and 13 and 10 and 7 | % inhibition to Vehicle, Summed Prophylactic (Non-Enrollment) Paw Score (MTX 1.5 mg/kg PO, Day 10): 16% | Summed Prophylactic (Non-Enrollment) Paw Score (MTX 1.5 mg/kg PO, Day 10, group mean): 7.40 | Summed Prophylactic (Non-Enrollment) Paw Score (MTX 1.5 mg/kg PO, Day 10, individual animals): 6 and 5 and 4 and 14 and 10 and 8 | % inhibition to Vehicle, Summed Prophylactic (Non-Enrollment) Paw Score (MTX 1.5 mg/kg PO, Day 11): 16%
